Literature values as cited in US11167002B2, “Pharmaceutical composition for the treatment of malignant neoplasms including sarcoma, cancers of liver, lung, bladder, blood and cervical, treatment of infectious diseases and type 2 diabetes” (priority 2019, dated 2021).

What was measured:
[1] = tested on: Entamoeba histolytica and Giardia lamblia; settings: allicin in pure form
[2] = tested on: Gram-negative and Gram-positive bacteria, including multidrug-resistant enterotoxigenic strains of Escherichia coli; settings: allicin in pure form
[3] = allicin in pure form
Candida albicans = settings: allicin in pure form

SMILES: C=CCS[S+]([O-])CC=C (stereo not shown) [Allicin]
- antiparasitic activity [1]: antiparasitic activity
- antibacterial activity [2]: antibacterial activity
- antiviral activity [3]: antiviral activity
- antifungal activity (Candida albicans): antifungal activity
